Assay [1] has as its system men with erectile dysfunction. The assay is described as follows: Clinical study of arginine aspartate (Sargenor) alone and with Pycnogenol in 40 men with erectile dysfunction. In kind it is in vivo, human. As to the method: A clinical study was conducted on forty participants who had erectile dysfunction. The study involved the effect of taking arginine asparatate, which is a salt of arginine with aspartic acid. One gram of arginine asparatate contains 566.85 mg of arginine.
The participants were grouped according to their variant of disturbed erection. The variants are in five categories: weakened, delayed, hesitating, losing and normal. The “weakened” variant signifies that the penis increases in size and becomes hard to a certain extent, but it is not enough to enter the vagina. The “delayed” variant signifies that if it is possible for the penis to become hard enough to enter the vagina, but such may require additional time. The “hesitating” variant signifies that before or after sexual contact, the erection is unstable and thus makes the sexual intercourse more difficult. The “losing” variant signifies that during the love game there is good erection, but such is lost when trying to make contact or during intercourse. The “normal” variant signifies that no appreciable disturbed erection was present.
The clinical study was over three months. During the first month, only 3 doses of 1000 milligrams (mg) of arginine asparatate (Sargenor) were administered daily to each participant. By the end of the first month, there was improvement in erectile dysfunction in about 10% of the participants. During the second month, 2 doses of 40 mg of Pycnogenol® food supplement were administered daily to each participant, together with the 3 doses of 1000 mg of arginine asparatate. By the end of the second month, there was a statistically significant improvement of erectile dysfunction in 80% of the participants. During the third month, 3 doses of 40 mg of Pycnogenol® food supplement were administered daily to each participant, together with the 3 doses of 1000 mg of arginine asparatate. By the end of the third month, there was further improvement of the erectile dysfunction condition even for some of the participants who had not shown improvement during the second month. Overall, there was a statistically significant improvement of erectile dysfunction in 92% of the treated participants.
The following statistical analysis of the results from the clinical study calculate the probability of whether the observed differences between two treatments are statistically significant at a certain level.
Dr. Romil Stanislavov and V. Nikolova of The Seminological Laboratory SBALAG in Maichin Dom, Sofia, Bulgaria investigated the possibility to overcome erectile dysfunction by increasing the amounts of endogenous NO. For this purpose, Pycnogenol® pine bark extract as it is known to stimulate nitric oxide synthase was orally administered together with L-arginine as substrate for this enzyme.
The study included 40 men aged 25 to 45 years (mean age 36.6.+−.5.3 years) with confirmed functional erectile dysfunction of at least 3 months duration, who were unable to achieve adequate erection and rigidity sufficient for vaginal penetration and completion of successful intercourse after spontaneous sexual stimulation. All patients were required to be involved in a stable, monogamous relationship with a female partner for more than 6 months.
Exclusion criteria were severe cardiovascular diseases, hypertension, renal failure, hepatic insufficiency, endocrine abnormalities, and psychiatric disorders. Patients were also excluded if they were currently or recently treated for erectile dysfunction by vasoactive medications, surgery, or any mechanical device. Concomitant use of other therapies for erectile dysfunction were not allowed. The study was approved by the Ethics Committee of Medical Research Board of the University Clinic of Sofia, Bulgaria and written consent was obtained from each participant. […]

Assay [2] relates to men with testosterone levels below normal. The assay can be described thus: Example 2: 12-month treatment of 50 men with testosterone levels below normal and secondary infertility; Global efficacy questionnaire on erection. In kind it is in vivo, human. To be noted: after 1 month treatment with L-arginine (only). As to the method: In the department of Dr. Stanislavov and Dr. Nikolova 50 men aged between 45-60 with testosterone levels below normal were treated daily with • Pycnogenol® 120 mg • L-arginine (Sargenor) 1.71 g • Testosterone undecanoate 120 mg • over a period of 12 months because of secondary infertility.

The subject of a further assay is postmenopausal women. The conditions noted are these: taken together with supplemental hormones; 202 postmenopausal women; cited from earlier work.
[3] abbreviates: after 1 month, arginine aspartate (Sargenor) 3 x 1000 mg daily only, 40 patients.

Several values for one entry are separate records, joined by “and”; a condition that tells them apart may be missing. Identical values can stand only once.

As to L-arginine aspartate [Sargenor], in assay [1] (Sargenor only, 1. month), the “Responders (restored erectile function), number of patients” value was determined as 2 and the “Responders (restored erectile function), percent of patients” value amounted to 5%. For the same compound, in assay [1] (setting [3]), the “Normal erection, D (percent distribution)” value was determined as 5%; the “Normal erection, n (number of patients)” value was 2; the “Variant of disturbed erection: Delayed, D (percent distribution)” value worked out at 25%; the “Variant of disturbed erection: Delayed, n (number of patients)” value came to 10. Besides, in assay [1] (setting [3]), the “Variant of disturbed erection: Hesitating, D (percent distribution)” value amounted to 10%; the “Variant of disturbed erection: Hesitating, n (number of patients)” value amounted to 4; the “Variant of disturbed erection: Losing, D (percent distribution)” value amounted to 10%; the “Variant of disturbed erection: Losing, n (number of patients)” value was determined as 4. Moreover, in assay [1] (setting [3]), the “Variant of disturbed erection: Weakened, D (percent distribution)” value was 50% and the “Variant of disturbed erection: Weakened, n (number of patients)” value is recorded as 20. The “Participants with improvement in erectile dysfunction” value in assay [1] (end of first month, 3 doses of 1000 mg arginine asparatate daily only) was “about 10%”. Further, the “Mean time of duration (of the erection)” value in assay [1] (mean (SEM), responders, Sargenor only, 1. month) came to 2 ± 1 min. Moreover, in assay [1] (mean (SEM), responders, spontaneous sexual stimulation, Sargenor only, 1. month), the “Mean time until response emerges” value is 10 min and 10 ± 2 min. In assay [2], the “Assessment of erection: Disturbed (weakened, delayed, hesitating, loosing), number of patients” value stood at 42; the “Assessment of erection: Disturbed (weakened, delayed, hesitating, loosing), percent of patients” value was 84%; the “Assessment of erection: Normal, number of patients” value is reported as 8; the “Assessment of erection: Normal, percent of patients” value stood at 16%.

Take `CCCc1nn(C)c2c(=O)[nH]c(-c3cc(S(=O)(=O)N4CCN(C)CC4)ccc3OCC)nc12` [sildenafil]: the “Women reporting improved genital sensations” value with postmenopausal women was 57%.

Source of the values: patent publication US20050171030A1, “Relieving symptoms of erectile dysfunction and attaining sexual wellness and health of the sexual vascular system with proanthocyanidins” (priority 2000, published 2005).
